Like-named read-outs stand apart in the source and are kept apart here.
Columns and labels:
[1] = test system: human T-lymphocytes (CEM/O cells); assay: Toxicity: inhibition of proliferation of human T-lymphocytes (CEM/O cells); format: cell-based; conditions: read-out: IC50 (50% inhibitory concentration), proliferation of CEM/O cells
Description: Following synthesis, the various compounds were tested in vitro for toxicity, by measuring the IC50 (i.e. the concentration which caused 50% inhibition) in respect of the inhibitory effects of the compounds on the proliferation of human T-lymphocytes (CEM/O cells).

HIV-1(IIIB) = assay: Serial passage of HIV-1 infected CEM cell cultures with sub-toxic drug, cytopathic effect (giant cell formation); format: cell-based; conditions: for percentage of cytopathic effect (giant cell formation), passage number 1: passage 1; for percentage of cytopathic effect (giant cell formation), passage number 1 / percentage of cytopathic effect (giant cell formation), passage number 2 / percentage of cytopathic effect (giant cell formation), passage number 3 / percentage of cytopathic effect (giant cell formation), passage number 4 / percentage of cytopathic effect (giant cell formation), passage number 5 / percentage of cytopathic effect (giant cell formation), passage number 6 / percentage of cytopathic effect (giant cell formation), passage number 7: subcultivation every 5 days; for percentage of cytopathic effect (giant cell formation), passage number 2: passage 2; for percentage of cytopathic effect (giant cell formation), passage number 3: passage 3; for percentage of cytopathic effect (giant cell formation), passage number 4: passage 4; for percentage of cytopathic effect (giant cell formation), passage number 5: passage 5; for percentage of cytopathic effect (giant cell formation), passage number 6: passage 6; for percentage of cytopathic effect (giant cell formation), passage number 7: passage 7; for antiviral activity (inhibition of HIV replication) in words: HIV-1 infected CEM cells, sub-toxic concentrations, up to 7 passages
Description: HIV-1 infected CEM cells were subcultured every 4–5 days in the presence of sub-toxic concentrations (in the range of 10–20% of their respective IC50 value) of the compounds under test. At each sub-culture, cell-free supernatant (10–20 μl) was transferred to fresh 1 ml cell cultures. At regular intervals the cultures were inspected microscopically to assess the extent of any cytopathic effect (giant cell formation). As an alternative, it is also possible to perform an immunoassay to quantify viral p24 production.
The preliminary results for up to 7 passages are shown below in Table 3.

## O=C1NC2=NOCCC2=CN1[C@H]1C[C@H](O)[C@@H](CO)O1 [JA21, 6-(2-deoxy-β-D-ribofuranosyl)-3,4-dihydro-8H-pyrimido[4,5-c][1,2] oxazin-7-one, reference compound]
[1]; T-lymphocyte
  IC50: 690 ± 14 µM
HIV-1(IIIB); 400 μM
  percentage of cytopathic effect (giant cell formation), passage number 1: 100%
  percentage of cytopathic effect (giant cell formation), passage number 2: 100%
  percentage of cytopathic effect (giant cell formation), passage number 3: 25%
  percentage of cytopathic effect (giant cell formation), passage number 4: 50%
  percentage of cytopathic effect (giant cell formation), passage number 5: 37%
  percentage of cytopathic effect (giant cell formation), passage number 6: 12%
  percentage of cytopathic effect (giant cell formation), passage number 7: 6%

## O=C1NC2=NOCCC2=CN1[C@@H]1O[C@H](CO)[C@@H](O)[C@H]1O [JA22, 6-(β-D-ribofuranosyl)-3,4-dihydro-8H-pyrimido[4,5-c][1,2] oxazin-7-one]
[1]; T-lymphocyte
  IC50: 698 ± 11 µM
HIV-1(IIIB); 400 μM
  percentage of cytopathic effect (giant cell formation), passage number 1: 100%
  percentage of cytopathic effect (giant cell formation), passage number 2: 100%
  percentage of cytopathic effect (giant cell formation), passage number 3: 100%
  percentage of cytopathic effect (giant cell formation), passage number 4: 100%
  percentage of cytopathic effect (giant cell formation), passage number 5: 100%
  percentage of cytopathic effect (giant cell formation), passage number 6: 100%
  percentage of cytopathic effect (giant cell formation), passage number 7: 100%

## CNc1nc(N)nc2c1ncn2[C@@H]1O[C@H](CO)[C@@H](O)[C@H]1O [JA23, 2-amino-N^6-methyladenosine]
[1]; T-lymphocyte
  IC50: 622 ± 8 µM
HIV-1(IIIB); 400 μM
  percentage of cytopathic effect (giant cell formation), passage number 1: 100%
  percentage of cytopathic effect (giant cell formation), passage number 2: 100%
  percentage of cytopathic effect (giant cell formation), passage number 3: 12%
  percentage of cytopathic effect (giant cell formation), passage number 4: 25%
  percentage of cytopathic effect (giant cell formation), passage number 5: 3%
  percentage of cytopathic effect (giant cell formation), passage number 6: 0%
  percentage of cytopathic effect (giant cell formation), passage number 7: 0%
HIV-1(IIIB)
  antiviral activity (inhibition of HIV replication) in words: moderately effective

## NNc1nc(N)nc2c1ncn2[C@@H]1O[C@H](CO)[C@@H](O)[C@H]1O [JA24, N^6-amino-9-β-D-ribofuranosyl-2,6-diaminopurine]
[1]
  IC50: 62 ± 6 µM
HIV-1(IIIB); 4 μM
  percentage of cytopathic effect (giant cell formation), passage number 1: 100%
  percentage of cytopathic effect (giant cell formation), passage number 2: 100%
  percentage of cytopathic effect (giant cell formation), passage number 3: 19%
  percentage of cytopathic effect (giant cell formation), passage number 4: 100%
  percentage of cytopathic effect (giant cell formation), passage number 5: 100%
  percentage of cytopathic effect (giant cell formation), passage number 6: 100%
  percentage of cytopathic effect (giant cell formation), passage number 7: 12%
HIV-1(IIIB); 10 μM
  percentage of cytopathic effect (giant cell formation), passage number 1: 100%
  percentage of cytopathic effect (giant cell formation), passage number 2: 100%
  percentage of cytopathic effect (giant cell formation), passage number 3: 25%
  percentage of cytopathic effect (giant cell formation), passage number 4: 100%
  percentage of cytopathic effect (giant cell formation), passage number 5: 100%
  percentage of cytopathic effect (giant cell formation), passage number 6: 100%
  percentage of cytopathic effect (giant cell formation), passage number 7: 25%

## NNc1ncnc2c1ncn2[C@@H]1O[C@H](CO)[C@@H](O)[C@H]1O [JA25, N^6-aminoadenosine]
[1]; T-lymphocyte
  IC50: 12 ± 3 µM
HIV-1(IIIB); 0.8 μM
  percentage of cytopathic effect (giant cell formation), passage number 1: 100%
  percentage of cytopathic effect (giant cell formation), passage number 2: 100%
  percentage of cytopathic effect (giant cell formation), passage number 3: 87%
  percentage of cytopathic effect (giant cell formation), passage number 4: 100%
  percentage of cytopathic effect (giant cell formation), passage number 5: 100%
  percentage of cytopathic effect (giant cell formation), passage number 6: 100%
  percentage of cytopathic effect (giant cell formation), passage number 7: 100%
HIV-1(IIIB); 2 μM
  percentage of cytopathic effect (giant cell formation), passage number 1: 100%
  percentage of cytopathic effect (giant cell formation), passage number 2: 100%
  percentage of cytopathic effect (giant cell formation), passage number 3: 100%
  percentage of cytopathic effect (giant cell formation), passage number 4: 100%
  percentage of cytopathic effect (giant cell formation), passage number 5: 100%
  percentage of cytopathic effect (giant cell formation), passage number 6: 100%
  percentage of cytopathic effect (giant cell formation), passage number 7: 100%

## CONc1ncnc2c1ncn2[C@@H]1O[C@H](CO)[C@@H](O)[C@H]1O [JA26, N^6-methoxyadenosine]
[1]; T-lymphocyte
  IC50: 44 ± 2 µM
HIV-1(IIIB); 4 μM
  percentage of cytopathic effect (giant cell formation), passage number 1: 100%
  percentage of cytopathic effect (giant cell formation), passage number 2: 100%
  percentage of cytopathic effect (giant cell formation), passage number 3: 25%
  percentage of cytopathic effect (giant cell formation), passage number 4: 100%
  percentage of cytopathic effect (giant cell formation), passage number 5: 100%
  percentage of cytopathic effect (giant cell formation), passage number 6: 12%
  percentage of cytopathic effect (giant cell formation), passage number 7: 3%
HIV-1(IIIB); 10 μM
  percentage of cytopathic effect (giant cell formation), passage number 1: 100%
  percentage of cytopathic effect (giant cell formation), passage number 2: 100%
  percentage of cytopathic effect (giant cell formation), passage number 3: 25%
  percentage of cytopathic effect (giant cell formation), passage number 4: 100%
  percentage of cytopathic effect (giant cell formation), passage number 5: 100%
  percentage of cytopathic effect (giant cell formation), passage number 6: 12%
  percentage of cytopathic effect (giant cell formation), passage number 7: 3%

## CN(N)c1ncnc2c1ncn2[C@@H]1O[C@H](CO)[C@@H](O)[C@H]1O [JA27, N^6-amino-N^6-methyladenosine]
[1]; T-lymphocyte
  IC50: 17 ± 2 µM
HIV-1(IIIB); 4 μM
  percentage of cytopathic effect (giant cell formation), passage number 1: 100%
  percentage of cytopathic effect (giant cell formation), passage number 2: 100%
  percentage of cytopathic effect (giant cell formation), passage number 3: 6%
  percentage of cytopathic effect (giant cell formation), passage number 4: 25%
  percentage of cytopathic effect (giant cell formation), passage number 5: 25%
  percentage of cytopathic effect (giant cell formation), passage number 6: 0%
  percentage of cytopathic effect (giant cell formation), passage number 7: 0%
HIV-1(IIIB)
  antiviral activity (inhibition of HIV replication) in words: moderately effective

From US7049303B2, “Inhibition of viruses” (Medical Research Council, priority 2001, dated 2006)
